Laboratory results: patent publication US7659404B2, “Broad spectrum 2-(substituted-amino)-benzothiazole sulfonamide HIV protease inhibitors” (Tibotec Pharmaceuticals Ltd., priority 2001, dated 2010)

Tests used:
virus strain F (R13025) = assay: microbe, parasite or virus in culture; type: cell-based, HIV; settings: for fold resistance (FR), strain F: FR=EC50(mutant strain)/EC50(HIV-1 strain LAI); for EC50: Human immunodeficiency virus 1, MT4, read-out: HIV-AVE-MT4-MTT-R13025-2-002 pEC50, virus strain F (R13025), MT4 cells, MTT (converted); for HIV-AVE-MT4-MTT-R13025-2-002 pEC50: virus strain F (R13025), MT4 cells
Method: (§1) HIV- or mock-infected MT4 cells were incubated for five days in the presence of various concentrations of the inhibitor. […] Cell viability is measured by measuring the concentration of MTT, a yellow, water soluble tetrazolium dye that is converted to a purple, water insoluble formazan in the mitochondria of living cells only. Upon solubilization of the resulting formazan crystals with isopropanol, the absorbance of the solution is monitored at 540 nm. The values correlate directly to the number of living cells remaining in the culture at the completion of the five day incubation. The inhibitory activity of the compound was monitored on the virus-infected cells and was expressed as EC50 and EC90. These values represent the amount of the compound required to protect 50% and 90%, respectively, of the cells from the cytopathogenic effect of the virus. The toxicity of the compound was measured on the mock-infected cells and was expressed as CC50, which represents the concentration of compound required to inhibit the growth of the cells by 50%. The selectivity index (SI) (ratio CC50/EC50) is an indication of the selectivity of the anti-HIV activity of the inhibitor.
(§2) Because of the increasing emergence of drug resistant HIV strains, the present compounds were tested for their potency against clinically isolated HIV strains harboring several mutations.
(§3) As a measure of the broad spectrum activity of the present compounds, the fold resistance (FR) defined as FR=EC50(mutant strain)/EC50(HIV-1 strain LAI).

virus strain S (R13080) = assay: microbe, parasite or virus in culture; type: cell-based, HIV; settings: for fold resistance (FR), strain S: FR=EC50(mutant strain)/EC50(HIV-1 strain LAI); for EC50: Human immunodeficiency virus 1, MT4, read-out: HIV-AVE-MT4-MTT-R13080-2-002 pEC50, virus strain S (R13080), MT4 cells, MTT (converted); for HIV-AVE-MT4-MTT-R13080-2-002 pEC50: virus strain S (R13080), MT4 cells
Method: as §1, §2, §3

[1] = system: clinically isolated HIV strain I; type: cell-based; settings: FR=EC50(mutant strain)/EC50(HIV-1 strain LAI)
Method: as §1, §2, §3

[2] = system: clinically isolated HIV strain H; type: cell-based; settings: FR=EC50(mutant strain)/EC50(HIV-1 strain LAI)
Method: as §1, §2, §3

[3] = system: clinically isolated HIV strain O; type: cell-based; settings: FR=EC50(mutant strain)/EC50(HIV-1 strain LAI)
Method: as §1, §2, §3

[4] = system: clinically isolated HIV strain T; type: cell-based; settings: FR=EC50(mutant strain)/EC50(HIV-1 strain LAI)
Method: as §1, §2, §3

[5] = system: clinically isolated HIV strain J; type: cell-based; settings: FR=EC50(mutant strain)/EC50(HIV-1 strain LAI)
Method: as §1, §2, §3

wild type virus (IIIB) = assay: HIV-AVE-MT4-MTT cellular assay, wild type virus (IIIB); type: cell-based; settings: MT4 cells, MTT; for EC50: Human immunodeficiency virus 1, IIIB, MT4, wild type virus (IIIB), read-out: HIV-AVE-MT4-MTT-IIIB-2-002 pEC50 (converted); for HIV-AVE-MT4-MTT-IIIB-2-002 pEC50: wild type virus (IIIB)
Method: HIV- or mock-infected MT4 cells were incubated for five days in the presence of various concentrations of the inhibitor. At the end of the incubation period, all HIV-infected cells have been killed by the replicating virus in the control cultures in the absence of any inhibitor. Cell viability is measured by measuring the concentration of MTT, a yellow, water soluble tetrazolium dye that is converted to a purple, water insoluble formazan in the mitochondria of living cells only. Upon solubilization of the resulting formazan crystals with isopropanol, the absorbance of the solution is monitored at 540 nm. The values correlate directly to the number of living cells remaining in the culture at the completion of the five day incubation. The inhibitory activity of the compound was monitored on the virus-infected cells and was expressed as EC50 and EC90. These values represent the amount of the compound required to protect 50% and 90%, respectively, of the cells from the cytopathogenic effect of the virus. The toxicity of the compound was measured on the mock-infected cells and was expressed as CC50, which represents the concentration of compound required to inhibit the growth of the cells by 50%. The selectivity index (SI) (ratio CC50/EC50) is an indication of the selectivity of the anti-HIV activity of the inhibitor.

SMILES	EC50 (virus strain F (R13025)) [nM]	EC50 (virus strain S (R13080)) [nM]	EC50 (wild type virus (IIIB)) [nM]	also measured
CC(C)CN(C[C@@H](O)[C@H](Cc1ccccc1)NC(=O)OCc1cccnc1)S(=O)(=O)c1ccc2nc(NCCN(C)C)sc2c1 [Compound 38]	–	–	–	fold resistance (FR), strain F (virus strain F (R13025)): 12.4; fold resistance (FR), strain S (virus strain S (R13080)): 11.9; fold resistance (FR), strain I [1]: 1.1; fold resistance (FR), strain H [2]: 2.0; fold resistance (FR), strain O [3]: 1.2; fold resistance (FR), strain T [4]: 230.4; fold resistance (FR), strain J [5]: 3.9
CC(=O)Nc1nc2ccc(S(=O)(=O)N(CC(C)C)C[C@@H](O)[C@H](Cc3ccccc3)NC(=O)Cc3cc(C)no3)cc2s1 [Compound 84]	–	–	–	fold resistance (FR), strain F (virus strain F (R13025)): 54.3; fold resistance (FR), strain S (virus strain S (R13080)): 195.4; fold resistance (FR), strain I [1]: 13.0; fold resistance (FR), strain H [2]: 11.7; fold resistance (FR), strain O [3]: 6.1; fold resistance (FR), strain T [4]: 195.4; fold resistance (FR), strain J [5]: 19.6
Cc1c(N)cccc1C(=O)N[C@@H](Cc1ccccc1)[C@H](O)CN(CC(C)C)S(=O)(=O)c1ccc2nc(NCCN(C)C)sc2c1 [Compound 39]	–	–	–	fold resistance (FR), strain F (virus strain F (R13025)): 19.7; fold resistance (FR), strain S (virus strain S (R13080)): 16.5; fold resistance (FR), strain I [1]: 2.4; fold resistance (FR), strain H [2]: 2.3; fold resistance (FR), strain O [3]: 1.7; fold resistance (FR), strain T [4]: 249.9; fold resistance (FR), strain J [5]: 2.2
Cc1cccc(C)c1OCC(=O)N[C@@H](Cc1ccccc1)[C@H](O)CN(CC(C)C)S(=O)(=O)c1ccc2nc(NCCCN(C)C)sc2c1 [Compound 53]	–	–	–	fold resistance (FR), strain F (virus strain F (R13025)): 2.1; fold resistance (FR), strain S (virus strain S (R13080)): 3.8; fold resistance (FR), strain I [1]: 1.3; fold resistance (FR), strain H [2]: 0.6; fold resistance (FR), strain O [3]: 1.6; fold resistance (FR), strain T [4]: 49.8; fold resistance (FR), strain J [5]: 1.4
CC(C)CN(C[C@@H](O)[C@H](Cc1ccccc1)NC(=O)OCc1cncs1)S(=O)(=O)c1ccc2nc(NC(=O)C3CCCN(C)C3)sc2c1 (stereo partly shown) [Compound 183]	1.7	7.08	3.55	–
CC(C)CN(C[C@@H](O)[C@H](Cc1ccccc1)NC(=O)OCc1cncs1)S(=O)(=O)c1ccc2nc(NC(=O)c3cc(ON)cc(ON)c3)sc2c1 [Compound 162]	46.8	158	20.4	–
CC(C)CN(C[C@@H](O)[C@H](Cc1ccccc1)NC(=O)OCc1cncs1)S(=O)(=O)c1ccc2nc(NC(=O)c3ccccn3)sc2c1 [Compound 165]	123	631	44.7	–
CC(=O)NCCNc1nc2ccc(S(=O)(=O)N(CC(C)C)C[C@@H](O)[C@H](Cc3ccccc3)NC(=O)COc3c(C)cccc3C)cc2s1 [Compound 133]	33.9	158	21.4	–
CC(C)CN(C[C@@H](O)[C@H](Cc1ccccc1)NC(=O)O[C@H]1CCOC1)S(=O)(=O)c1ccc2nc(NC(=O)CN3CCCC3)sc2c1 [Compound 100]	43.7	70.8	1.32	–
CC(C)COC(=O)Nc1nc2ccc(S(=O)(=O)N(CC(C)C)C[C@@H](O)[C@H](Cc3ccccc3)NC(=O)OCc3cncs3)cc2s1 [Compound 171]	186	851	51.3	–
CC(C)CN(C[C@@H](O)[C@H](Cc1ccccc1)NC(=O)OCc1cncs1)S(=O)(=O)c1ccc2nc(NC(=O)c3ccncc3)sc2c1 [Compound 168]	31.6	135	24.5	–
CC(C)CN(C[C@@H](O)[C@H](Cc1ccccc1)NC(=O)OC(C)(C)C)S(=O)(=O)c1ccc2nc(NCCN3CCCC3)sc2c1 [Compound 126]	3160	10000	49	–
CC(C)CN(C[C@@H](O)[C@H](Cc1ccccc1)NC(=O)OCc1cncs1)S(=O)(=O)c1ccc2nc(N3CCN(C)C3=O)sc2c1 [Compound 151]	813	2690	107	–
CC(C)CN(C[C@@H](O)[C@H](Cc1ccccc1)NC(=O)OCc1cncs1)S(=O)(=O)c1ccc2nc(N(C)C(=O)c3cc[nH]c3)sc2c1 [Compound 181]	525	1820	33.1	–
CC(C)CN(C[C@@H](O)[C@H](Cc1ccccc1)NC(=O)OCc1cncs1)S(=O)(=O)c1ccc2nc(N(C)C(=O)CN(C)C)sc2c1 [Compound 176]	–	–	–	HIV-AVE-MT4-MTT-R13025-2-002 pEC50 (virus strain F (R13025)): 7.2; HIV-AVE-MT4-MTT-R13080-2-002 pEC50 (virus strain S (R13080)): 6.65; HIV-AVE-MT4-MTT-IIIB-2-002 pEC50 (wild type virus (IIIB)): 8.39
CC(C)CN(C[C@@H](O)[C@H](Cc1ccccc1)NC(=O)O[C@H]1CO[C@H]2OCC[C@H]21)S(=O)(=O)c1ccc2nc(NCCN)sc2c1 [Compound 185]	33.1	34.7	45.7	–
CC(C)CN(C[C@@H](O)[C@H](Cc1ccccc1)NC(=O)OCc1cncs1)S(=O)(=O)c1ccc2nc(NC(=O)OC(C)C)sc2c1 [Compound 167]	30.9	141	4.9	–
CC(C)CN(C[C@@H](O)[C@H](Cc1ccccc1)NC(=O)O[C@H]1CO[C@H]2OCC[C@H]21)S(=O)(=O)c1ccc2nc(N3CCN(C)CC3)sc2c1 [Compound 107]	158	661	2	–
CC(C)CN(C[C@@H](O)[C@H](Cc1ccccc1)NC(=O)OCc1cncs1)S(=O)(=O)c1ccc2nc(NC(=O)CN3CCN(C)CC3)sc2c1 [Compound 159]	–	–	–	HIV-AVE-MT4-MTT-R13025-2-002 pEC50 (virus strain F (R13025)): 7.78; HIV-AVE-MT4-MTT-R13080-2-002 pEC50 (virus strain S (R13080)): 7.46; HIV-AVE-MT4-MTT-IIIB-2-002 pEC50 (wild type virus (IIIB)): 8.1
CC(C)CN(C[C@@H](O)[C@H](Cc1ccccc1)NC(=O)OCc1cncs1)S(=O)(=O)c1ccc2nc(NC(=O)[C@@H]3CCCN3C)sc2c1 [Compound 166]	21.9	74.1	6.31	–
CC(C)CN(C[C@@H](O)[C@H](Cc1ccccc1)NC(=O)OCc1cncs1)S(=O)(=O)c1ccc2nc(NC(=O)CN3CCNCC3)sc2c1 [Compound 155]	24.5	–	42.7	HIV-AVE-MT4-MTT-R13080-2-002 pEC50 (virus strain S (R13080)): 7.49
Cc1cccc(C)c1OCC(=O)Nc1nc2ccc(S(=O)(=O)N(CC(C)C)C[C@@H](O)[C@H](Cc3ccccc3)NC(=O)COc3c(C)cccc3C)cc2s1 [Compound 145]	39.8	145	12.6	–
CC(C)CN(C[C@@H](O)[C@H](Cc1ccccc1)NC(=O)O[C@H]1CO[C@H]2OCC[C@H]21)S(=O)(=O)c1ccc2nc(N(C)CCCN3CCCC3)sc2c1 [Compound 108]	288	813	24.5	–
CC(C)CN(C[C@@H](O)[C@H](Cc1ccccc1)NC(=O)O[C@H]1CO[C@H]2OCC[C@H]21)S(=O)(=O)c1ccc2nc(NC(=O)c3cncs3)sc2c1 [Compound 177]	7.59	49	37.2	–
CC(=O)Nc1nc2ccc(S(=O)(=O)N(CC(C)C)C[C@@H](O)[C@H](Cc3ccccc3)NC(=O)COc3c(C)cc(C)cc3C)cc2s1 [Compound 105]	56.2	479	46.8	–
CC(=O)Nc1nc2ccc(S(=O)(=O)N(CC(C)C)C[C@@H](O)[C@H](Cc3ccccc3)NC(=O)COc3ccon3)cc2s1 [Compound 102]	132	955	12	–
CC(C)CN(C[C@@H](O)[C@H](Cc1ccccc1)NC(=O)OCc1cncs1)S(=O)(=O)c1ccc2nc(NC(=O)CN3CCN(C)CC3)sc2c1 [Compound 156]	–	27.5	7.24	HIV-AVE-MT4-MTT-R13025-2-002 pEC50 (virus strain F (R13025)): 8.27
